Assay results: article PMC9231011, “Irreversible Antagonists for the Adenosine A2B Receptor” (Molecules, 2022)

Biological target: T1, human A2AAR (Homo sapiens, UniProt P29274)
T1 construct: expressed in transfected cells; host or cells: FreeStyle CHO-S cells, pcDNA3.1(+), transient
Experiment: Competitive radioligand binding vs [3H]MSX-2
Details: for Ki: apparent Ki for irreversibly binding ligands, three independent experiments, read-out: A2AAR vs. Radioligand [3H]MSX-2 Ki ± SEM
From the text: The potentially irreversible xanthine derivatives were investigated for their binding affinity at human A2BARs and for their selectivity versus the other human AR subtypes, A1, A2A, and A3, by competitive radioligand binding experiments.
The human A2AAR, the mutant human A2BAR (K269^7.32L), and the human A3AR were transiently expressed in FreeStyle^TM CHO-S cells using the transfection reagent polyethylenimine (PEI) at a ratio of 1:3 to DNA according to the manufacturer’s guideline. pcDNA3.1(+) was used as the transfection vector containing the cDNA for either the wt ARs or the K269^7.32L mutant A2BAR that was prepared by site-directed mutagenesis with the following primer: forward […], reverse […]. CHO-S cells were grown in FreeStyle^TM CHO Expression Medium supplemented with 8 mM L-glutamine before use and split to 0.5 mio. cells per mL the day before transfection. Twenty-four hours after transfection, cells were spun down by centrifugation for 15 min at 500× g. Cells were disrupted by resuspension in 5 mM tris(hydroxymethyl)aminomethane buffer (Tris, pH 7.4) containing 2 mM ethyl-ene¬diaminetetraacetic acid (EDTA) with subsequent homogenization using an Ultra-Turrax homogenizer. The cell suspension was centrifuged for 10 min at 1000× g and the obtained supernatant was pelleted by centrifugation for 60 min at 48,000× g. The supernatant was discarded and the pellet washed with 50 mM Tris (pH 7.4). After centrifugation for at least 30 min at 48,000× g, the pellet was resuspended in 50 mM Tris (pH 7.4), aliquoted and stored at −80 °C for further use. All centrifugation steps were carried out at 4 °C. Membrane preparations of the human wt A1AR and the human wt A2BAR were purchased from Perkin Elmer (Perkin-Elmer, Waltham, MA, USA) (catalogue numbers ES-010-M400UA and ES-013-M400UA).
Binding experiments were performed using 50 mM Tris buffer (pH 7.4) in a total volume of 400 µL for the A1AR, A2AAR, A3AR, and 1000 µL for the A2BAR. Initial screening was carried out in two independent experiments at 1 µM. Competition of compounds versus [^3H]CCPA (A1AR, final concentration 1 nM), [^3H]MSX-2 (A2AAR, final concentration 1 nM), [^3H]PSB-603 (A2BAR, final concentration 0.3 nM) and [^3H]PSB-11 (A3AR, final concentration 1 nM) was investigated. An amount of 7.5–25 µg of total protein per well was employed, incubated with 2 U of adenosine deaminase per mL beforehand. Non-specific binding was determined in the presence of 10 µM of 2-chloroadenosine, 10 µM of CGS 15943, 10 µM of 8-cyclopently-1,3-dipropylxanthine or 100 µM of (R)-N^6-phenylisopropyadenosine for A1-, A2A-, A2B- and A3ARs, respectively. Competition association experiments (at 25 °C) were performed in the same way but the protein was added delayed at indicated time points and the cell membranes were harvested after 1 min. Incubation was terminated by rapid filtration through GF/B glass fiber filters (Whatman) using a 48-well harvester (Brandel) after 90 (A1AR), 30 (A2AAR), 75 (A2BAR), and 45 min (A3AR) of incubation, respectively. Filters were pre-incubated with 0.3% (w/v) of PEI for 30–60 min in case of the A2AAR assay. Filters were rinsed three times with ice-cold 50 mM Tris, pH 7.4 (supplemented with 0.1% (w/v) bovine serum albumin for the A2BAR) and transferred into scintillation vials. Filters were then incubated with 2.5 mL of scintillation cocktail (ProSafe FC plus) for at least 6 h. Subsequently, radioactivity was determined using a liquid scintillation counter (Tricarb 2810TR, Perkin Elmer).

T1 sequence (P29274 whole entry): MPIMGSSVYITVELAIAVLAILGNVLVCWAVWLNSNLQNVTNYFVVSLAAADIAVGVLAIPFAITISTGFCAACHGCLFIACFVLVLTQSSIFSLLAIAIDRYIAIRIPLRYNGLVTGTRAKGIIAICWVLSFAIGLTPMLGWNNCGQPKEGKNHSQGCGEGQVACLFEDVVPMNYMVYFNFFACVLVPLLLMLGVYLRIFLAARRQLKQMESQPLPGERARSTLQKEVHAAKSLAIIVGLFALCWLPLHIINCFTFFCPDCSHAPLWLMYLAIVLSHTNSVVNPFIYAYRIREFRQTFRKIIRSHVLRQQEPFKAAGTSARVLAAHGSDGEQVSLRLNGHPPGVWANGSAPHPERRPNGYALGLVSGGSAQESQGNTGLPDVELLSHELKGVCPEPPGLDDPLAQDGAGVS

SMILES: CCCn1c(=O)[nH]c2nc(-c3ccc(S(=O)(=O)N4CCC(NC(=O)c5ccc(S(=O)(=O)F)cc5)CC4)cc3)[nH]c2c1=O [compound 12, 4-((1-((4-(2,6-Dioxo-1-propyl-2,3,6,7-tetrahydro-1H-purin-8-yl)phenyl)sulfonyl)piperidin-4-yl)carbamoyl)benzenesulfonyl fluoride]
- A2AAR vs. Radioligand [3H]MSX-2 % inhibition at 1 µM: 32%
- Ki: > 1000 nM

SMILES: CCCn1c(=O)[nH]c2nc(-c3ccc(S(=O)(=O)F)cc3)[nH]c2c1=O [6a, 4-(2,6-Dioxo-1-propyl-2,3,6,7-tetrahydro-1H-purin-8-yl)benzenesulfonyl fluoride]
- A2AAR vs. Radioligand [3H]MSX-2 % inhibition at 1 µM: 53%
- Ki: ~1000 nM

SMILES: CCCn1c(=O)c2[nH]c(-c3ccc(S(=O)(=O)F)cc3)nc2n(C2CC2)c1=O [6c, 4-(3-Cyclopropyl-2,6-dioxo-1-propyl-2,3,6,7-tetrahydro-1H-purin-8-yl)benzenesulfonyl fluoride]
- Ki: 72.9 ± 8.1 nM

SMILES: CCCn1c(=O)c2[nH]c(-c3ccc(S(=O)(=O)F)cc3)nc2n(C)c1=O [6b, 4-(3-Methyl-2,6-dioxo-1-propyl-2,3,6,7-tetrahydro-1H-purin-8-yl)benzenesulfonyl fluoride]
- Ki: 372 ± 48 nM
